Measured values from PMC7265341, “Quantifying CDK inhibitor selectivity in live cells” (Nature Communications, 2020).
Where two headings read alike, the source gives them in different places.

Key:
[1] = molecular target: CDK2/Cyclin E1 (Homo sapiens, UniProt P24941); test: NanoBRET live-cell target engagement, CDK2-NanoLuc/Cyclin E1 in HEK-293; type: binding; details: 10µM, read-out: CDK2/E1 Inhibition at 10µM (%)
[2] = molecular target: CDK19/Cyclin C (Homo sapiens, UniProt Q9BWU1); test: NanoBRET live-cell target engagement, NanoLuc-CDK19/Cyclin C in HEK-293; details: read-out: CDK19/C Inhibition at 10µM (%), 10µM
Chain of CDK19/Cyclin C (Q9BWU1 whole entry): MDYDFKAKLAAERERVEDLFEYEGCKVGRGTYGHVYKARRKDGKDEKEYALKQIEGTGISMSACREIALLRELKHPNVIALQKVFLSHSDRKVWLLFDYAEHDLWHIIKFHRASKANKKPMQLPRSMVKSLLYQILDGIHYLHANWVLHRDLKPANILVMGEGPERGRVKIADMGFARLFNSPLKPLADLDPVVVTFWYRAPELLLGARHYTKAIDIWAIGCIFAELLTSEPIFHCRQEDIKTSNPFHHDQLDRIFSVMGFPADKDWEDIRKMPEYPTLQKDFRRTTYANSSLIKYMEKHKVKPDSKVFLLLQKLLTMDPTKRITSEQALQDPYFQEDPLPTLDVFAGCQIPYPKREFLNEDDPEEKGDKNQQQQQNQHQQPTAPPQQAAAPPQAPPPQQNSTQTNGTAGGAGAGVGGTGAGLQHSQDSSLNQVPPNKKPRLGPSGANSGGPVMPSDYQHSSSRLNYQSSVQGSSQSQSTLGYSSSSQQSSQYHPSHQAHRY
Chain of CDK19/Cyclin C (P24863 whole entry partner): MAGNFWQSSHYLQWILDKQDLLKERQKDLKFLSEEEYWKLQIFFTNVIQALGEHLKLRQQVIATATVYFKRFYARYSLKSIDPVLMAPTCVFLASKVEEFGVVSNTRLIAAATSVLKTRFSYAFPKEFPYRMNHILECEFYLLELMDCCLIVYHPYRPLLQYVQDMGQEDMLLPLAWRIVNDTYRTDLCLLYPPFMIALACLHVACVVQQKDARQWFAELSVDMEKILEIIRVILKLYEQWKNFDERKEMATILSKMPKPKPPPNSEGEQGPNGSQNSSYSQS

[3] = molecular target: CDK9/Cyclin K (Homo sapiens, UniProt P50750); test: NanoBRET live-cell target engagement, NanoLuc-CDK9/Cyclin K in HEK-293; type: binding; details: 10µM, read-out: CDK9/K Inhibition at 10µM (%)
[4] = molecular target: CDK8/Cyclin C (Homo sapiens, UniProt P49336); test: NanoBRET live-cell target engagement, NanoLuc-CDK8/Cyclin C in HEK-293; type: binding; details: 10µM, read-out: CDK8/C Inhibition at 10µM (%)
[5] = molecular target: CDK10/Cyclin L2 (Homo sapiens, UniProt Q15131); test: NanoBRET live-cell target engagement, CDK10-NanoLuc/Cyclin L2 in HEK-293; details: for inhibition at 10 µM: read-out: CDK10/L2 Inhibition at 10µM (%), 10µM
[6] = molecular target: T1, CDK11A/Cyclin L2 (Homo sapiens, UniProt Q9UQ88); test: NanoBRET live-cell target engagement, CDK11A-NanoLuc/Cyclin L2 in HEK-293; type: binding; details: for inhibition at 10 µM: read-out: CDK11a/L2 Inhibition at 10µM (%); for IC50: read-out: CDK11a/L2 IC50
T1 sequence (Q9UQ88 1-783): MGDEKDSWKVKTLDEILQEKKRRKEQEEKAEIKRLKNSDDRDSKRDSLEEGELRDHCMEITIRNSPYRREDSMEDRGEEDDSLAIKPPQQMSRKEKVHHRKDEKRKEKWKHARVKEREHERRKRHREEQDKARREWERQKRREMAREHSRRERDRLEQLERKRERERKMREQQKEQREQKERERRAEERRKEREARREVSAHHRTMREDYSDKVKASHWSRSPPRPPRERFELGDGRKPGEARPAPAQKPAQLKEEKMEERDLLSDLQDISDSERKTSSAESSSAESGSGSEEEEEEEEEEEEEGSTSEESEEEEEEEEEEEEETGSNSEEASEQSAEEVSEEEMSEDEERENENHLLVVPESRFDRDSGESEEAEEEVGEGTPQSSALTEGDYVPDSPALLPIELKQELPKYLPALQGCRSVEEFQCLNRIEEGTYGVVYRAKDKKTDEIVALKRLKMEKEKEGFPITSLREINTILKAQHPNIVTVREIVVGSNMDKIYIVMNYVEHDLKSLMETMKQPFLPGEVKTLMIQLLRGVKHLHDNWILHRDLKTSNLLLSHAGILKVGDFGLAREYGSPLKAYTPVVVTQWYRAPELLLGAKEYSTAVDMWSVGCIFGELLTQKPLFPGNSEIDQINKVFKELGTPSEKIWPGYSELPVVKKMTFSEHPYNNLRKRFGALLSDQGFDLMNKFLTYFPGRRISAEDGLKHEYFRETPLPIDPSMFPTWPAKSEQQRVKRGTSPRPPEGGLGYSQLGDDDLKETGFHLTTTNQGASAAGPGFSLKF

[7] = molecular target: CDK6/Cyclin D1 (Homo sapiens, UniProt Q00534); test: NanoBRET live-cell target engagement, NanoLuc-CDK6/Cyclin D1 in HEK-293; type: binding; details: for inhibition at 10 µM: read-out: CDK6/D1 Inhibition at 10µM (%); for IC50: read-out: CDK6/D1 IC50
[8] = molecular target: CDK13/Cyclin K (Homo sapiens, UniProt Q14004); test: NanoBRET live-cell target engagement, CDK13-NanoLuc/Cyclin K in HEK-293; type: binding; details: 10µM, read-out: CDK13/K Inhibition at 10µM (%)
Chain of CDK13/Cyclin K (O75909 whole entry): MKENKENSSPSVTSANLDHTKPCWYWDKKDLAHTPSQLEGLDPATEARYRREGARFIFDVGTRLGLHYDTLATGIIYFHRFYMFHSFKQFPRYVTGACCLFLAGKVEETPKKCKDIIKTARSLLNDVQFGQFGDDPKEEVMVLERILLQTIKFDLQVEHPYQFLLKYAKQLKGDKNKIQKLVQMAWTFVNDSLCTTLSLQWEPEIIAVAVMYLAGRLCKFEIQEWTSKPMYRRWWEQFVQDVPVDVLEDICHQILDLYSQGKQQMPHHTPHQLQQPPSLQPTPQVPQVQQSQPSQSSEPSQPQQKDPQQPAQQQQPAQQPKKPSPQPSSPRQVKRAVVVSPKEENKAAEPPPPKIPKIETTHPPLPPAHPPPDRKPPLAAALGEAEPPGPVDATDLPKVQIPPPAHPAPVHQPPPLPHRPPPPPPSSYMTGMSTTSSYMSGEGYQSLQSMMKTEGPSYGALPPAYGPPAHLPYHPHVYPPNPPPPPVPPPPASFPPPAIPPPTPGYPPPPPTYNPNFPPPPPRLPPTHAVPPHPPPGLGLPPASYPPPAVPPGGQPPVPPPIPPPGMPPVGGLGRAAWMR
Chain of CDK13/Cyclin K (Q14004 other isoform, or with tags, fused parts or gaps): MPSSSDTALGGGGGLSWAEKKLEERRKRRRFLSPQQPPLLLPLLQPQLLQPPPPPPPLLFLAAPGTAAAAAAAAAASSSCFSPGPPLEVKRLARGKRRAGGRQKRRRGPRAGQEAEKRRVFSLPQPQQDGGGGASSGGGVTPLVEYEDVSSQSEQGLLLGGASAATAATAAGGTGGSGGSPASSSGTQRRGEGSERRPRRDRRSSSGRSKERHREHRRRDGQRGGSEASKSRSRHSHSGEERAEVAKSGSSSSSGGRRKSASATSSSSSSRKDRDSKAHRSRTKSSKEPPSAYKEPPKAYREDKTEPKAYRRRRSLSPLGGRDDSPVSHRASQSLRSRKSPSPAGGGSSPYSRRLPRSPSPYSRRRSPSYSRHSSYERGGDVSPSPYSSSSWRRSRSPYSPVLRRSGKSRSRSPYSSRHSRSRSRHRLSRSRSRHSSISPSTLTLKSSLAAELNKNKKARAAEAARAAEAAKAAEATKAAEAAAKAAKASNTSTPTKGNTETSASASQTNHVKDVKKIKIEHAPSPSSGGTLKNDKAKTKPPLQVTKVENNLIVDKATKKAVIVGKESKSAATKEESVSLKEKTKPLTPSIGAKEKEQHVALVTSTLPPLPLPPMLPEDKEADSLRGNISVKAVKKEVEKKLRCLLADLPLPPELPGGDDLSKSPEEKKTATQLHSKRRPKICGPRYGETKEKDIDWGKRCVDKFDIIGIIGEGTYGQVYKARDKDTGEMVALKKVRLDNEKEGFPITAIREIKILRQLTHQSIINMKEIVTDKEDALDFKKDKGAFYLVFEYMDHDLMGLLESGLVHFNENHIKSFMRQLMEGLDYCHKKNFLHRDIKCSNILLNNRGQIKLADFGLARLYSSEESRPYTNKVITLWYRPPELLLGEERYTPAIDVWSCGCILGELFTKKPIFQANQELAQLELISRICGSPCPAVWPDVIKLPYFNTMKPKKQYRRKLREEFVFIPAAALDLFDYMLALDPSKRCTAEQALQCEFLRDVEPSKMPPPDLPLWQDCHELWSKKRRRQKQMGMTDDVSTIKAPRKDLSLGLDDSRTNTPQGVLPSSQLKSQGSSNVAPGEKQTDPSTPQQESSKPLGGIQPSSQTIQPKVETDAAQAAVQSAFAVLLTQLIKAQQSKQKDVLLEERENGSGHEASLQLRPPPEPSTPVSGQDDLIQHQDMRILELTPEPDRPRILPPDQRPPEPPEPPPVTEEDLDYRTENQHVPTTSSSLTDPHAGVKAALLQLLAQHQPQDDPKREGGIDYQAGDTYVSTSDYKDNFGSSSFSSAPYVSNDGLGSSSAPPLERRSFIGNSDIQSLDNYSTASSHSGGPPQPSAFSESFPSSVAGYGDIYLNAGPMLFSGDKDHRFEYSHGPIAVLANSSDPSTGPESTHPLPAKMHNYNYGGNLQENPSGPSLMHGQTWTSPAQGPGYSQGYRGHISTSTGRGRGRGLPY

[9] = molecular target: CDK4/Cyclin D1 (Homo sapiens, UniProt P11802); test: NanoBRET live-cell target engagement, NanoLuc-CDK4/Cyclin D1 in HEK-293; type: binding; details: for inhibition at 10 µM: read-out: CDK4/D1 Inhibition at 10µM (%)
[10] = molecular target: CDK11B/Cyclin L2 (Homo sapiens, UniProt P21127); test: NanoBRET live-cell target engagement, CDK11B-NanoLuc/Cyclin L2 in HEK-293; type: binding; details: for inhibition at 10 µM: read-out: CDK11b/L2 Inhibition at 10µM (%); for IC50: read-out: CDK11b/L2 IC50
[11] = molecular target: CDK5/CDK5R1 (Homo sapiens, UniProt Q00535); test: NanoBRET live-cell target engagement, CDK5-NanoLuc/CDK5R1 in HEK-293; type: binding; details: for inhibition at 10 µM: read-out: CDK5/CDK5R1 Inhibition at 10µM (%)
Chain of CDK5/CDK5R1 (Q00535 whole entry): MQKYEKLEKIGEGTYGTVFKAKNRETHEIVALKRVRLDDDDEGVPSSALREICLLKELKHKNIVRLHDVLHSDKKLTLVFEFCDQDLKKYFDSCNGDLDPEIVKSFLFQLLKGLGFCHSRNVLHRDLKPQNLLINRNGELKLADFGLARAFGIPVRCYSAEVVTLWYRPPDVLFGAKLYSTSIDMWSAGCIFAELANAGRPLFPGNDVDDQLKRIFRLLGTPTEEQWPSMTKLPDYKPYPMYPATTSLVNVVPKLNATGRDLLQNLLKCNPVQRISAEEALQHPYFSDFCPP
Chain of CDK5/CDK5R1 (Q15078 whole entry partner): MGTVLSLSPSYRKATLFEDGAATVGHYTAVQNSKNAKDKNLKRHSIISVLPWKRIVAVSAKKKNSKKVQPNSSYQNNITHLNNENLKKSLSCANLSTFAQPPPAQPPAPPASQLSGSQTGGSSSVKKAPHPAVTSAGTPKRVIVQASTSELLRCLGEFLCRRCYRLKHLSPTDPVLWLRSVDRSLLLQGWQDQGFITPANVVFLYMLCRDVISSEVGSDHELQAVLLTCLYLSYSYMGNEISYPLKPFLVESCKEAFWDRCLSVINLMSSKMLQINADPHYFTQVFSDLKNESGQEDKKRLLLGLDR

[12] = molecular target: CDK3/Cyclin E1 (Homo sapiens, UniProt Q00526); test: NanoBRET live-cell target engagement, CDK3-NanoLuc/Cyclin E1 in HEK-293; type: binding; details: for inhibition at 10 µM: read-out: CDK3/E1 Inhibition at 10µM (%); for IC50: read-out: CDK3/E1 IC50
[13] = molecular target: CDK20/Cyclin H (Homo sapiens, UniProt Q8IZL9); test: NanoBRET live-cell target engagement, NanoLuc-CDK20/Cyclin H in HEK-293; type: binding; details: 10µM, read-out: CDK20/H Inhibition at 10µM (%)
[14] = molecular target: CDK1/Cyclin E1 (Homo sapiens, UniProt P06493); test: NanoBRET live-cell target engagement, CDK1-NanoLuc/Cyclin E1 in HEK-293; type: binding; details: for inhibition at 10 µM: read-out: CDK1/E1 Inhibition at 10µM (%)
[15] = molecular target: CDK12/Cyclin K (Homo sapiens, UniProt Q9NYV4); test: NanoBRET live-cell target engagement, CDK12-NanoLuc/Cyclin K in HEK-293; type: binding; details: for inhibition at 10 µM: read-out: CDK12/K Inhibition at 10µM (%); for IC50: read-out: CDK12/K IC50
Chain of CDK12/Cyclin K (Q9NYV4 1-1481 isoform Q9NYV4-2): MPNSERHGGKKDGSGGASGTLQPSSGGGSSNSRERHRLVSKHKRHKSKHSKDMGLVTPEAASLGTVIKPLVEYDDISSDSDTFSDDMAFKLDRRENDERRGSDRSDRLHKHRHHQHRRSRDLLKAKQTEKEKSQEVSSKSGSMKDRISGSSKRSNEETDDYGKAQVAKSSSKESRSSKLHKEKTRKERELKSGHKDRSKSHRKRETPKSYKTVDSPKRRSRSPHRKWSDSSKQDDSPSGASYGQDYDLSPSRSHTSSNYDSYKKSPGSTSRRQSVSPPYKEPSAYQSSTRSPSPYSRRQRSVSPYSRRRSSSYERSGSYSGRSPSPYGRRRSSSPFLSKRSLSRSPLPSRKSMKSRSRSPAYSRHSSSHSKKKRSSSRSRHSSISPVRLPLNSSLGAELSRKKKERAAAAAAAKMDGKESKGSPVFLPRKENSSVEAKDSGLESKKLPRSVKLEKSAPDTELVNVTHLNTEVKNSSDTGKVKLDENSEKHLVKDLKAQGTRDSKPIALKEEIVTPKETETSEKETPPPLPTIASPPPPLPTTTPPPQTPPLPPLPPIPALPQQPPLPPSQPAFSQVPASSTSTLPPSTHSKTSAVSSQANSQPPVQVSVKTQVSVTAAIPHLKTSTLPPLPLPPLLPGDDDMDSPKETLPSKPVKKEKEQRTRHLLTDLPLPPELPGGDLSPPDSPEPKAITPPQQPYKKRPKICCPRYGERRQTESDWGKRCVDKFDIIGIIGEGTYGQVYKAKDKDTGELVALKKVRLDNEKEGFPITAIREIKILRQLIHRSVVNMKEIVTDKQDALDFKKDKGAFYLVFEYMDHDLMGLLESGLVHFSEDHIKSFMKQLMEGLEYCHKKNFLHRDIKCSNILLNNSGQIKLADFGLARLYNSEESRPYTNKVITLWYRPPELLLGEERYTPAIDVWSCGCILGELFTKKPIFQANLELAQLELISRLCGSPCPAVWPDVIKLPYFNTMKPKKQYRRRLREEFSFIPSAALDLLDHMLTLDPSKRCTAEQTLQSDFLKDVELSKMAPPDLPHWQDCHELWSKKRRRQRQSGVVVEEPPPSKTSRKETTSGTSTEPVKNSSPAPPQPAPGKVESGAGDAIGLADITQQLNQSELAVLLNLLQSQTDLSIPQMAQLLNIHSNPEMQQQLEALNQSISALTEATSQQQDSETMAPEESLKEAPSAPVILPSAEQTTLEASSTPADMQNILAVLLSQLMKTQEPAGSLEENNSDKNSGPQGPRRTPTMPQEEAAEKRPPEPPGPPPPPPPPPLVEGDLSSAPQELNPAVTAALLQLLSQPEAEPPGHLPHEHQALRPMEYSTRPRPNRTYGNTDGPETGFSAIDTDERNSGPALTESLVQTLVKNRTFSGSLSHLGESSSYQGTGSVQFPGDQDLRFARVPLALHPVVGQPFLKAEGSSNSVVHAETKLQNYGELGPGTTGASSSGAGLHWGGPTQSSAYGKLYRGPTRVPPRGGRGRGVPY
Chain of CDK12/Cyclin K (O75909 whole entry partner): as the sequence (O75909 whole entry) above

[16] = molecular target: CDK17/Cyclin Y (Homo sapiens, UniProt Q00537); test: NanoBRET live-cell target engagement, CDK17-NanoLuc/Cyclin Y in HEK-293; type: binding; details: for inhibition at 10 µM: read-out: CDK17/Y Inhibition at 10µM (%); for IC50: read-out: CDK17/Y IC50
[17] = molecular target: CDK15/Cyclin Y (Homo sapiens, UniProt Q96Q40); test: NanoBRET live-cell target engagement, NanoLuc-CDK15/Cyclin Y in HEK-293; type: binding; details: for inhibition at 10 µM: read-out: CDK15/Y Inhibition at 10µM (%); for IC50: read-out: CDK15/Y IC50
[18] = molecular target: CDK18/Cyclin Y (Homo sapiens, UniProt Q07002); test: NanoBRET live-cell target engagement, CDK18-NanoLuc/Cyclin Y in HEK-293; type: binding; details: for inhibition at 10 µM: read-out: CDK18/Y Inhibition at 10µM (%); for IC50: read-out: CDK18/Y IC50
[19] = molecular target: CDK16/Cyclin Y (Homo sapiens, UniProt Q00536); test: NanoBRET live-cell target engagement, CDK16-NanoLuc/Cyclin Y in HEK-293; type: binding; details: 10µM, read-out: CDK16/Y Inhibition at 10µM (%)

CN1C/C=C/CCOc2cccc(c2)-c2ccnc(n2)Nc2cccc(c2)C1 [SB1317]
inhibition at 10 µM ([1]; average of experiments): 96.5%
inhibition at 10 µM ([1]; independent experiment 1): 98%
inhibition at 10 µM ([1]; independent experiment 2): 95%
inhibition at 10 µM ([2]; average of experiments): 74.8%
inhibition at 10 µM ([2]; independent experiment 1): 62.1%
inhibition at 10 µM ([2]; independent experiment 2): 87.4%
inhibition at 10 µM ([3]; average of experiments): 99.7%
inhibition at 10 µM ([3]; independent experiment 1): 100%
inhibition at 10 µM ([3]; independent experiment 2): 99.2%
inhibition at 10 µM ([4]; average of experiments): 72.3%
inhibition at 10 µM ([4]; independent experiment 1): 57.3%
inhibition at 10 µM ([4]; independent experiment 2): 87.3%
IC50 ([5]; CDK10/L2 IC50 (nM), average (± SEM where n=3)): 520 nM
IC50 ([5]; CDK10/L2 IC50 (nM), independent experiment 1): 530 nM
IC50 ([5]; CDK10/L2 IC50 (nM), independent experiment 2): 520 nM
IC50 ([5]; IC50 for CDK/cyclin complexes, CDK10/L2, live HEK-293, 2 h, mean ± S.E.M. (n=3) or mean (n=2)): 520 nM
inhibition at 10 µM ([5]; average of experiments): 88%
inhibition at 10 µM ([5]; independent experiment 1): 81.7%
inhibition at 10 µM ([5]; independent experiment 2): 94.4%
inhibition at 10 µM ([6]; average of experiments): 95.6%
inhibition at 10 µM ([6]; independent experiment 1): 93.3%
inhibition at 10 µM ([6]; independent experiment 2): 97.9%
IC50 ([6]; average (± SEM where n=3)): 190 nM
IC50 ([6]; independent experiment 1): 200 nM
IC50 ([6]; independent experiment 2): 180 nM
inhibition at 10 µM ([7]; average of experiments): 98.3%
inhibition at 10 µM ([7]; independent experiment 1): 97.3%
inhibition at 10 µM ([7]; independent experiment 2): 99.2%
IC50 ([7]; average (± SEM where n=3)): 270 nM
IC50 ([7]; independent experiment 1): 290 nM
IC50 ([7]; independent experiment 2): 250 nM
inhibition at 10 µM ([8]; average of experiments): 63.7%
inhibition at 10 µM ([8]; independent experiment 1): 47.7%
inhibition at 10 µM ([8]; independent experiment 2): 79.6%
inhibition at 10 µM ([9]; average of experiments): 99.8%
inhibition at 10 µM ([9]; independent experiment 1): 100%
inhibition at 10 µM ([9]; independent experiment 2): 99.2%
IC50 ([9]; average (± SEM where n=3), read-out: CDK4/D1 IC50): 140 nM
IC50 ([9]; independent experiment 1, read-out: CDK4/D1 IC50): 140 nM
IC50 ([9]; independent experiment 2, read-out: CDK4/D1 IC50): 150 nM
IC50 ([9]; live HEK-293, 2 h, mean ± S.E.M. (n=3) or mean (n=2), read-out: IC50 for CDK/cyclin complexes, CDK4/D1): 140 nM
inhibition at 10 µM ([10]; average of experiments): 94.9%
inhibition at 10 µM ([10]; independent experiment 1): 95.5%
inhibition at 10 µM ([10]; independent experiment 2): 94.4%
IC50 ([10]; average (± SEM where n=3)): 51 nM
IC50 ([10]; independent experiment 1): 49 nM
IC50 ([10]; independent experiment 2): 54 nM
inhibition at 10 µM ([11]; average of experiments): 93.3%
inhibition at 10 µM ([11]; independent experiment 1): 88.5%
inhibition at 10 µM ([11]; independent experiment 2): 98.1%
IC50 ([11]; average (± SEM where n=3), read-out: CDK5/CDK5R1 IC50): 180 nM
IC50 ([11]; independent experiment 1, read-out: CDK5/CDK5R1 IC50): 190 nM
IC50 ([11]; independent experiment 2, read-out: CDK5/CDK5R1 IC50): 180 nM
IC50 ([11]; live HEK-293, 2 h, mean ± S.E.M. (n=3) or mean (n=2), read-out: IC50 for CDK/cyclin complexes, CDK5/R1): 180 nM
inhibition at 10 µM ([12]; average of experiments): 97.1%
inhibition at 10 µM ([12]; independent experiment 1): 98.4%
inhibition at 10 µM ([12]; independent experiment 2): 95.9%
IC50 ([12]; average (± SEM where n=3)): 44 nM
IC50 ([12]; independent experiment 1): 45 nM
IC50 ([12]; independent experiment 2): 43 nM
inhibition at 10 µM ([13]; independent experiment 1): 79.2%
inhibition at 10 µM ([13]; independent experiment 2): 82.8%
inhibition at 10 µM ([14]; average of experiments): 95.4%
inhibition at 10 µM ([14]; independent experiment 1): 95%
inhibition at 10 µM ([14]; independent experiment 2): 95.8%
IC50 ([14]; average (± SEM where n=3), read-out: CDK1/E1 IC50): 200 nM
IC50 ([14]; independent experiment 1, read-out: CDK1/E1 IC50): 200 nM
IC50 ([14]; independent experiment 2, read-out: CDK1/E1 IC50): 210 nM
IC50 ([14]; live HEK-293, 2 h, mean ± S.E.M. (n=3) or mean (n=2), read-out: IC50 for CDK/cyclin complexes, CDK1/E1): 200 nM
inhibition at 10 µM ([15]; average of experiments): 60.9%
inhibition at 10 µM ([15]; independent experiment 1): 45.8%
inhibition at 10 µM ([15]; independent experiment 2): 76%
IC50 ([15]; average (n=2)): 680 nM
IC50 ([15]; independent experiment 1): 610 nM
IC50 ([15]; independent experiment 2): 750 nM
inhibition at 10 µM ([16]; average of experiments): 94.8%
inhibition at 10 µM ([16]; independent experiment 1): 96.6%
inhibition at 10 µM ([16]; independent experiment 2): 93.1%
IC50 ([16]; average (± SEM where n=3)): 49 nM
IC50 ([16]; independent experiment 1): 50 nM
IC50 ([16]; independent experiment 2): 47 nM
inhibition at 10 µM ([17]; average of experiments): 98.1%
inhibition at 10 µM ([17]; independent experiment 1): 97.4%
inhibition at 10 µM ([17]; independent experiment 2): 98.7%
IC50 ([17]; average (± SEM where n=3)): 58 nM
IC50 ([17]; independent experiment 1): 55 nM
IC50 ([17]; independent experiment 2): 61 nM
inhibition at 10 µM ([18]; average of experiments): 101%
inhibition at 10 µM ([18]; independent experiment 1): 98.4%
inhibition at 10 µM ([18]; independent experiment 2): 103%
IC50 ([18]; average (± SEM where n=3)): 82 nM
IC50 ([18]; independent experiment 1): 99 nM
IC50 ([18]; independent experiment 2): 65 nM
inhibition at 10 µM ([19]; independent experiment 1): 96.3%
inhibition at 10 µM ([19]; independent experiment 2): 92.9%
